Measured values as given in patent publication US9475755B2, “Prophylactic agent for chronic kidney disease” (SBI Pharmaceuticals Co., Ltd., priority 2011, dated 2016).

How the values were obtained:
anemia in piglets = settings: reported in Patent Document 1; cited from earlier work
[1] = Administration of radiolabeled ALA (14C-ALA) to research the pharmacokinetics of ALA; type: in vivo
chronic kidney disease [2] = experiment: Example 3: ingestion by a person with chronic kidney disease after removal of one kidney; type: in vivo, human; settings: after ingestion of 150 mg aminolevulinic acid phosphate and 172 mg sodium ferrous citrate per day
From the text: The effects of ingesting aminolevulinic acid phosphate and sodium ferrous citrate were examined for a person diagnosed with chronic kidney disease after removing one of their kidneys about 5 years ago because of cancer.

chronic kidney disease [3] = experiment: Example 2: ingestion by a person diagnosed with chronic kidney disease, dose switched 50 mg / 5 mg / 50 mg; type: in vivo, human
From the text: The effects of ingesting aminolevulinic acid phosphate and sodium ferrous citrate were examined for a person diagnosed with chronic kidney disease.

[4] = (c) after one month of switching to 5 mg aminolevulinic acid phosphate + 5.74 mg sodium ferrous citrate
[5] = (d) after two months of switching to 5 mg aminolevulinic acid phosphate + 5.74 mg sodium ferrous citrate

Row | Molecule | prevention of anemia (anemia in piglets) | retention of radiation in the kidneys ([1]; ALA excessively administered, even if urine is discharged) | tissue accumulation of ALA-derived radiation ([1]; radiolabeled ALA (14C-ALA) administered) | serum creatinine (FIG. 1, in words) (chronic kidney disease [2]) | Serum creatinine (chronic kidney disease [3]; [4]) | Urea nitrogen (chronic kidney disease [3]; [4]) | eGFR (chronic kidney disease [3]; [4]) | Serum creatinine (chronic kidney disease [3]; [5]) | Urea nitrogen (chronic kidney disease [3]; [5]) | eGFR (chronic kidney disease [3]; [5]) | fatigue / quality of life (chronic kidney disease [3]; person who ingested aminolevulinic acid phosphate and sodium ferrous citrate) | eGFR value (in words) (chronic kidney disease [3]; when 50 mg of aminolevulinic acid phosphate was ingested) | eGFR value (in words) (chronic kidney disease [3]; when once again returned to 50 mg) | improvement rate of the eGFR value (in words) (chronic kidney disease [3]; when reduced to 5 mg aminolevulinic acid phosphate and 5.74 mg sodium ferrous citrate)
1 | NCC(=O)CCC(=O)O [ALA, 5-aminolevulinic acid] | effective in preventing anemia in piglets | radiation has remained in the kidneys even after the passing of time | found in not only the anticipated liver and muscles, but also in the kidneys | – | – | – | – | – | – | – | – | – | – | –
2 | aminolevulinic acid phosphate | – | – | – | remarkable reduction | 1.14 mg/dL | 12.90 mg/dL | 50.10 mL/min/1.73 m^2 | 1.25 mg/dL | 14.10 mg/dL | 45.30 mL/min/1.73 m^2 | relieved from the fatigue peculiar to chronic kidney disease | remarkably improved (increased) | remarkable improvement | lowered
